# Source: patent publication US20200061076A1, “METHODS OF TREATING LEUKODYSTROPHIES” (Ramot at Tel-Aviv University Ltd., priority 2017, published 2020)
# Experiments:
# [1] = system: WT astrocytes; experiment: Cell survival assay, Crystal violet staining, WT astrocytes; format: cell-based, mouse; settings: 24 hours, untreated cells set to 100%
# Procedure: (§1) Cells were seeded on 96-wells plate at a density of 5000 cells per well. Astrocytes were seeded following coating with 0.001% PDL.
# [2] = system: Mut astrocytes; experiment: Cell survival assay, Crystal violet staining, Mut astrocytes; format: cell-based, mouse; settings: 24 hours, untreated cells set to 100%
# Procedure: as §1
# [3] = system: Mut MEFs; experiment: JC1 staining of intact and damaged mitochondria (mitochondrial membrane potential); format: cell-based, mouse; settings: Mut MEFs
# Procedure: Mut MEFs were treated or not for 6 hours with the indicated concentrations of p8G5 (blue), pre084 (purple), or NE-100 (yellow), washed and stained with Hoechst and JC1 for 30 minutes followed by image acquisition using In-Cell-Analyzer-2000. Shown is the % of red/green JC1 integrated intensity per cell relative to that in untreated WT cells of 2-4 independent experiments.
# Following, the cells were washed, stained with Hoechst and JC-1 fluorescent dyes for 30 minutes, and subjected to image acquisition using In-Cell-Analyzer-2000. Shown is cellular content of damaged mitochondria (JC1 green channel, red bars), intact mitochondria (JC1 red channel, green bars) and damaged to intact mitochondria ratio (blue bars). Values of control (vehicle treated) cells was set to 100%.
# Mut MEFs were treated with the indicated compounds at 10 μM for 24 hours followed by staining with fluorogenic dyes and image-based single-cell analysis. Shown is average effect on ROS level from at least 3-independent experiments ±SEM. […] Mut MEFs were incubated or not for 24 hours with 10 μM of the indicated compound, washed and stained with Crystal Violet. […] Mut MEFs were incubated or not for 24 hours with 10 μM of the indicated compound, washed and stained with JC1 and Hoechst followed by image-based single-cell analysis. Values of untreated cells were set as 100%. Shown is average of at least 3 independent experiments for each parameter compared to its matching control ±SEM. * p<0.05. Putative targets are indicated.
# Mut MEFs were incubated or not for 24 hours with 10 μM of the indicated compounds, washed and stained with Hoechst and JC1 followed by image-based single-cell analysis. […] Mut MEFs were incubated or not with the indicated concentrations of the indicated compounds for 2 hours followed by addition of 50 ng/ml Tunicamycin (Tun) for additional 22 hours, stained with Crystal Violet followed by measurement of absorbance at 570 nm.
# MEFs were seeded on 1% gelatin-coated 96-wells plate at a density of 5000 cells per well. 24 hours post-plating the cells were incubated with the tested compounds for additional 24 hours. Several DMSO-treated cells (control) were included in each plate at different locations. Following, the cells were stained by addition of fluorogenic dyes for further 30 minutes incubation at 37° C. […] CellROX was used together with Hoechst and CFSE; JC1 was used together with Hoechst. Cells were washed with Hank's balanced salt solution (HBSS) which was used for images acquisition using IN Cell Analyzer 2000 (GE Healthcare, Pitsburgh, Pa., USA). IN Cell Developer Toolbox 1.9.1 software (GE Healthcare) was used for analysis which included cells segmentation using Hoechst and/or CFSE signals. For analysis of JC1 staining, integrated intensity of green and red emissions were used for detection of damaged and intact mitochondria, respectively.
# [4] = molecular target: Sig-1R (Homo sapiens, UniProt Q99720); experiment: Competitive displacement binding assay with [3H]haloperidol (Eurofins); settings: 10 μM compound
# Procedure: Following, the direct binding of p8G5 to Sig-1R, was tested in-vitro by Eurofins labs (www(dot)cerep(dot)fr/cerep/users/pages/catalog/Affiche_CondExp_Test(dot)asp?test=889).
# [5] = system: Mut MEFs; experiment: mtDNA quantification (qPCR of mitochondrial 12S rRNA and nuclear 18S rRNA genes), MEFs; format: cell-based, mouse; settings: 0.1 μM-1 μM, 6 hours incubation (FIG. 2)
# Procedure: DNA extracted from WT and Mut MEFs that were treated or not for 6 hours with 0.1 μM, 1 μM or 10 μM of p8G5 (blue), Pre084 (known SIG-1R agonist, purple), pridopidine (known SIG-1R agonists, green) or NE-100 (known SIG-1R antagonist, yellow) was subjected to qPCR analysis of mitochondrial 12S rRNA and nuclear 18S rRNA genes.
# [6] = system: Mut MEFs; experiment: TMRE staining, flow cytometry; format: cell-based, mouse; settings: 1 μM, 6 hours (FIGS. 5A-B)
# Procedure: Mut MEFs were treated or untreated with the indicated concentrations of the indicated Sig-1R binders for 6 hours, stained by TMRE for 30 minutes and analyzed by flow cytometry. Shown are flow cytometry histograms and bar graphs representing % mean TMRE fluorescence intensity relative to non-treated WT cells of a representative experiment.
# MEFs were seeded at a density of 4×10^4 cells per well in a 24-wells plate. 24 hours post-plating the cells were incubated with the tested compounds for additional 6 hours followed by staining with 200 nM Tetra-Methyl-Rhodamine-Ethyl esterperchlorate (TMRE) (Abcam) for 30 minutes at 37° C. Cells were removed by trypsinyzation, washed and resuspended in PBS. 5-10×10^3 cells were analyzed by Stratedigm S1000EXi cell sorter and FlowJo software (FLOWJO, LLC, Ashland, Oreg., USA).
# [7] = system: Mut MEFs; experiment: Oxygen consumption (Seahorse XF Cell Mito Stress Test), MEFs; format: cell-based, mouse; settings: for basal and ATP-linked respiration rate per mitochondrial DNA content: 6 hours (FIGS. 8A-B)
# Procedure: Mut MEFs were treated or not for 6 hours with the indicated concentrations of the indicated Sig-1R binders. Oxygen consumption was measured in a XF96 Extracellular Flux Analyzer using the Seahorse XF Cell Mito Stress Test Kit. The Basal respiration (FIG. 7A) and ATP-linked respiration (FIG. 7B) data were normalized to biomass as determined by Crystal Violet staining.
# Mut MEFs were treated or not for 6 hours with the indicated concentrations of the indicated Sig-1R binders. Oxygen consumption was measured in a XF96 Extracellular Flux Analyzer using the Seahorse XF Cell Mito Stress Test Kit. The Basal respiration (FIG. 8A), ATP-linked respiration (FIG. 8B) and maximal respiration (FIG. 8C) data was normalized to mtDNA content as detailed in FIG. 2.
# (§2) The data were normalized to cell number, obtained by Crystal Violet staining, or to mtDNA content.
# [8] = system: Mut primary astrocytes; experiment: Oxygen consumption (OCR), primary astrocytes; format: cell-based, mouse; settings: 1 or 10 μm, 6 hours, normalized to cell number (FIGS. 17B-C)
# Procedure: (§3) Shown is average relative quantity (RQ) of 2-6 independent experiments normalized to their untreated controls ±SEM. […] Values of ATP-linked respiration (FIG. 17B) and maximal respiration (FIG. 17C) were analyzed and normalized to cell number.
# as §2
# [9] = system: Mut primary astrocytes; experiment: mtDNA quantification, primary astrocytes; format: cell-based, mouse; settings: 1 or 10 μm, 6 hours (FIG. 17A)
# Procedure: as §3
# Sig-1R, sequence (Q99720 whole entry): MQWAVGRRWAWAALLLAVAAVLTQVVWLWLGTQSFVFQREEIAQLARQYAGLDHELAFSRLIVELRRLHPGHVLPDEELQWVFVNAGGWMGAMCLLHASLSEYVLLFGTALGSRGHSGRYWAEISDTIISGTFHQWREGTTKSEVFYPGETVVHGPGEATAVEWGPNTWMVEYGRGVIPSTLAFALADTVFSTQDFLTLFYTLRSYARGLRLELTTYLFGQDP
smiles,measurement,setting,value
"Cc1cccc(OCCCCCN2CCOCC2)c1 [H8 (p8G5), 4-[5-(3-methylphenoxy)pentyl]morpholine]",Survival (%) ± SEM WT astrocytes,[1]; 1 μM,132 ± 10.7%
same,Survival (%) ± SEM WT astrocytes,[1]; 10 μM,102 ± 3.8%
same,Survival (%) ± SEM WT astrocytes,[1]; 30 μM,99 ± 3.2%
same,Survival (%) ± SEM Mut astrocytes,[2]; 1 μM,108 ± 0.6%
same,Survival (%) ± SEM Mut astrocytes,[2]; 10 μM,93 ± 2.1%
same,Survival (%) ± SEM Mut astrocytes,[2]; 30 μM,92 ± 1.6%
same,red/green JC1 signal (mitochondria with high to low membrane potential),"[3]; 1 μM and 10 μM, 6 hours (FIG. 6)",increased the ratio between the content of mitochondria with high to low membrane potential
same,"effect on mitochondrial health (JC1, intact and damaged mitochondria)","[3]; 10 μM, 24 hours (FIG. 14C)",significant beneficial effect on mitochondrial health
same,inhibition at 10 µM,[4],92%
same,mitochondrial content in Mut MEFs,[5],lowered the abnormal high mitochondrial content
same,TMRE staining (mitochondrial membrane potential),[6],increased TMRE staining to a level above that of untreated WT cells
same,maximal respiration rate per mitochondrial content,"[7]; 1 μM, 6 hours (FIG. 8C)",increased the maximal respiration capacity per mitochondria to the level of untreated WT cells
same,basal and ATP-linked respiration rate per mitochondrial DNA content,[7]; 1 μM,brought both parameters to WT levels
same,basal and ATP-linked respiration rate per mitochondrial DNA content,[7],statistically significant increase
same,basal respiration and ATP-linked respiration per cell (OCR),"[7]; 6 hours, normalized to biomass (FIGS. 7A-B)",no effect
same,ATP-linked and maximal respiration in mutant astrocytes,[8],increased both ATP-linked and maximal respiration
same,mitochondrial content per cell in astrocytes,[9],no effect on mitochondrial content per cell
